Source: US20180360953A1 (priority 2015, published 2018)
“Also recorded” adds a separate entry of the source. Read-outs that look alike come from different tables or passages of the source.

Experiments:
spleen cells [1] = assay type: cell-based, mice; details: spleen cells 24 hrs; Roflumilast 6.5 μM, Sivelestat 46 μM, Sulfasalazine 100 uM, Aspirin 100 μM
Experimental: In this example, the signaling induced by neutrophil inhibitors were examined to provide insight into mechanisms used to promote immunoglobulin class switching and production of IgG and/or IgA antibodies. In these experiments, the spleen cells of nice mice were cultured 24 hrs without or with neutrophil inhibitor (roflumilast (Phosphodiesterase-4 inhibitor), sivelestat (Neutrophil elastase inhibitor), sulfasalazine (Neutrophil NET inhibitor), or aspirin (COX inhibitor)). Gene expression was analyzed by qRT-PCR for BAFF, AID, TGFb, and IL-10. Mice were divided into 5 groups: (1) Control (Media) (2) Roflumilast (6.5 μM) (3) Sivelestat (46 μM) (4) Sulfasalazine (100 uM) and (5) Aspirin (100 μM).

spleen cells [2] = assay type: cell-based, mice
[3] = system: Spleen cells of naïve C57BL/6 mice; assay type: cell-based
spleen cells [4] = assay type: cell-based, mice; details: 100 μM
[5] = system: Bacillus anthracis lethal toxin (LeTx); assay type: in vivo, mice; details: Day 21
CD4+ T helper cells = system: CD4+ T helper cells; parameters: species or system mice; details: mouse, in vivo
[6] = system: mucosal homing receptors CCR9 and a4b7; assay type: cell-based; details: spleen and mesenteric lymph node cells of naïve mice, 48 hours, Alvelestat 50 or 200 mM
Experimental: Spleen (A) and mesenteric lymph node (B) cells of naïve mice were cultures for 48 hours in the absence or in the presence of the NEI Alvelestat ([…]). The expression of mucosal homing receptors CCR9 and a4b7 by B lymphocytes, and T lymphocytes was analyzed by flow cytometry.

spleen cells [7] = assay type: cell-based, mice; details: 5 days; for IgG and IgA secreted in culture supernatants of spleen cells / IgM secreted in culture supernatants of spleen cells: increasing doses
Experimental: (§1) Single cell suspensions of spleen cells, mesenteric lymph nodes were resuspended (2×10^6 cells/ml) in RPMI 1640 supplemented with L-glutamine, HEPES, penicillin, streptomycin and 10% heat-inactivated fetal calf serum. Cells were cultured for 1, 5, or 6 days at 37° C. and 5% CO2 in the presence of various doses of the neutrophil elastase inhibitor Sivelestat (ONO-5046, C20H22N2O7S) or Alvelestat (AZD9668, C25H22F3N5O4S) (Selleckchem, Houston, Tex.). In selected experiments, neutrophil elastase inhibitors were added to cells cultured in the presence of Salmonella typhimurium LPS (0.05 μg/ml, Sigma, Saint Louis, Mo.).
(§2) […] described by ELISA, using goat anti-murine IgM, IgG, and IgA antibodies (Southern Biotech, Birmingham, Ala.) and extrapolation against standards.

[8] = system: mesenteric lymph node cells; assay type: cell-based, mice; details: 5-days culture
Experimental: as §1, §2

PA-specific Ab responses [9] = system: PA-specific Ab responses; parameters: species or system mice; details: mouse, in vivo
[10] = system: OVA-specific Ab responses; parameters: species or system mice; details: mouse, in vivo, ip
[11] = system: mucosal homing receptors CCR9 and a4b7; parameters: species or system mice; details: mouse, ip
[12] = system: OVA-specific Ab responses; parameters: species or system mice; details: mouse, in vivo
spleen cells [13] = assay type: cell-based, mice; remark: listed apart in the source
spleen cells [14] = assay type: cell-based, mice; details: 24 hrs, 48 μM
[15] = system: F1-V-specific Ab responses; parameters: species or system mice; details: mouse, in vivo
PA-specific Ab responses [16] = system: PA-specific Ab responses; parameters: species or system mice; details: mouse, in vivo; remark: listed apart in the source
[17] = system: neutrophils and mast cells; details: cited from earlier work

With CC(=O)Oc1ccccc1C(=O)O [Acetyl-salicylic acid (ASA), acetylsalicylic acid] the “genes involved in immunoglobulin class switching (BAFF, AID, TGFb, and IL-10)” value (shortened to “genes involved”) (spleen cells [1]) was “differentially regulate”, the “IgG and IgA production (immunofluorescence on cytospins)” value (spleen cells [2]) was “enhanced” and the “Relative stimulation of IgA secretion” value [3] was “++”. The “Dose effect (Relative stimulation of IgA)” value ([3]; 10 uM) was “uM (++)”, the “Dose effect (Relative stimulation of IgA)” value ([3]; 100 uM) was “uM (++)” and the “Dose effect (Relative stimulation of IgA)” value ([3]; 500 uM) was “uM (+)”. The “IgA secretion by spleen cells (frequency of IgA secreting cells, ELISPOT)” value (from here on “IgA secretion by spleen cells”) (spleen cells [4]) was “enhanced”.

In the case of Cc1c(-c2ccnn2C)cc(C(=O)NCc2ccc(S(C)(=O)=O)cn2)c(=O)n1-c1cccc(C(F)(F)F)c1 [Alvelestat, alvelestat], the “serum anti-PA neutralizing antibody titers” value ([5]; sublingual EdTx and NEI, listed as NEI) is reported as “significantly increased; also recorded: enhanced neutralizing activity”, the “serum anti-PA neutralizing antibodies” value ([5]; sublingual antigen plus NEI) is reported as “low and comparable levels” and the “all CD4+ T helper cytokine responses, including Th1, Th2, Th17 and Tfh” value (CD4+ T helper cells) is reported as “significantly increased”. The “frequencies of IL-4+ CD4+ cells” value (CD4+ T helper cells) was “lower frequencies”, the “frequencies of IL-10+ CD4+ T cells and IL-17+ CD4+ T cells” value (CD4+ T helper cells) was “higher frequencies” and the “frequencies of Th1 cells (IFNγ+ CD4+ T cells and TNFα+ CD4+ T cells)” value (CD4+ T helper cells) was “same frequencies”. The “frequencies of Th2 cells producing IL-5” value (CD4+ T helper cells) was “similar”, the “frequencies of antigen-specific IL-21+ CD4 T cells” value (CD4+ T helper cells) was “same frequencies” and the “expression of gut homing receptors (CCR9 and a4b7) by B and T cells in vitro” value [6] was “promotes expression”. The “IgA production by spleen cells cultured in the presence of LPS” value (spleen cells [7]; LPS 0.05 μg/ml) was “significant increase”, the “IgG and IgA secreted in culture supernatants of spleen cells” value (spleen cells [7]) was “increased” and the “IgM secreted in culture supernatants of spleen cells” value (spleen cells [7]) was “reduced”. For the same compound, the “IgG and IgA in culture supernatants of mesenteric lymph node cells” value [8] was “higher levels”, the “High affinity PA-specific IgG1 and IgA Ab responses” value (PA-specific Ab responses [9]) was “high affinity antibodies; also recorded: promotes high affinity Abs” and the “titers of PA-specific IgG1 and IgA responses” value (PA-specific Ab responses [9]) was “enhanced”. The “kinetic and magnitude of OVA-specific serum IgG” value [10] was “enhances”, the “mucosal IgA responses in the gut (OVA-specific, fecal extracts)” value [10] was “promotes” and the “expression of gut homing receptors (CCR9 and a4b7) by B and T cells in vivo” value [11] was “promotes expression”. For the same compound, the “OVA-specific serum IgE response” value [12] was “no IgE response was detected”, the “OVA-specific serum IgE responses induced by EdTx” value [12] was “significantly reduced; also recorded: suppresses” and the “OVA-specific serum IgG1 responses in the absence of EdTx” value [12] was “increased”. The “OVA-specific serum IgG1 responses induced by EdTx” value [12] was “increased the magnitude; also recorded: enhances”, the “OVA-specific serum IgG2a/c, or IgG3 in the absence of EdTx” value [12] was “no evidence that the NEI enhanced” and the “OVA-specific serum IgG2b responses induced by EdTx as adjuvant” value [12] was “significantly increased; also recorded: enhances”. The “antigen-specific IgA in gut (fecal extracts)” value [12] was “did not stimulate”, the “antigen-specific IgA responses in vaginal washes” value [12] was “only non-significant levels” and the “fecal IgA responses” value [12] was “resulted in induction of fecal IgA responses”. The “vaginal IgG responses induced by EdTx as adjuvant” value [12] was “enhance”, the “frequency of CD4+ T cells” value (spleen cells [13]) was “increased” and the “AID mRNA synthesis” value (spleen cells [14]) was “stimulated”.

With CC(C)(C)C(=O)Oc1ccc(S(=O)(=O)Nc2ccccc2C(=O)NCC(=O)O)cc1 [Sivelestat, sivelestat] the “genes involved” value (spleen cells [1]) was “differentially regulate”, the “secretion of IgG and IgA by splenocytes cultured in the presence of LPS” value (spleen cells [7]; LPS 0.05 μg/ml) was “increased” and the “IgG and IgA secreted in culture supernatants of spleen cells” value (spleen cells [7]) was “dose-dependent increase”. The “IgM secreted in culture supernatants of spleen cells” value (spleen cells [7]) was “reduced”, the “IgG and IgA production (immunofluorescence on cytospins)” value (spleen cells [2]) was “larger increases” and the “Relative stimulation of IgA secretion” value [3] was “++”. For the same compound, the “Dose effect (Relative stimulation of IgA)” value ([3]; 4.6 uM) was “uM (+)”, the “Dose effect (Relative stimulation of IgA)” value ([3]; 46 uM) was “uM (++)” and the “Dose effect (Relative stimulation of IgA)” value ([3]; 230 uM) was “uM (++)”. For the same compound, the “IgA secretion by spleen cells” value (spleen cells [4]) was “enhanced”, the “IgA responses by a sublingual vaccine” value [15] was “promotes” and the “PA-specific salivary IgA response” value (PA-specific Ab responses [16]) was “enhances”. For the same compound, the “PA-specific serum IgA response” value (PA-specific Ab responses [16]) was “enhances”, the “PA-specific serum IgG1 response” value (PA-specific Ab responses [16]) was “enhances” and the “PA-specific serum IgG2c response” value (PA-specific Ab responses [16]) was “did not affect”. For the same compound, the “AID mRNA synthesis” value (spleen cells [14]) was “stimulated”.

In the case of O=C1CCC(N2C(=O)c3ccccc3C2=O)C(=O)N1 (stereo not drawn) [thalidomide], the “ET formation in neutrophils and mast cells” value [17] is listed as “significantly inhibit”.

For O=C(O)c1cc(/N=N/c2ccc(S(=O)(=O)Nc3ccccn3)cc2)ccc1O [Sulfasalazine, sulfasalazine], the “genes involved” value (spleen cells [1]) is listed as “differentially regulate”, the “ET formation in neutrophils and mast cells” value [17] is listed as “significantly inhibit” and the “Relative stimulation of IgA secretion” value [3] is listed as “+++”. For the same compound, the “Dose effect (Relative stimulation of IgA)” value ([3]; 10 uM) was “uM (++)”, the “Dose effect (Relative stimulation of IgA)” value ([3]; 100 uM) was “uM (+++)” and the “Dose effect (Relative stimulation of IgA)” value ([3]; 1000 uM) was “uM (+)”. The “IgA secretion by spleen cells” value (spleen cells [4]) was “enhanced”.

In the case of O=C(Nc1c(Cl)cncc1Cl)c1ccc(OC(F)F)c(OCC2CC2)c1 [Roflumilast], the “genes involved” value (spleen cells [1]) is reported as “differentially regulate”, the “Relative stimulation of IgA secretion” value [3] is reported as “+” and the “Dose effect (Relative stimulation of IgA)” value ([3]; 0.062 uM) is reported as “uM (−)”. The “Dose effect (Relative stimulation of IgA)” value ([3]; 0.62 uM) was “uM (−)” and the “Dose effect (Relative stimulation of IgA)” value ([3]; 6.2 uM) was “uM (+)”.
